For one series, the system named is DLD-1 cells. Description: Soft agar assay, anchorage-independent colony growth. In kind it is cell-based. The following applies: DLD-1 human colorectal carcinoma cells in soft agar, three weeks. As for the experimental part: The Example 2, 3, 4 and 9 compounds were compared to the COX-2 inhibitor celecoxib in inhibiting the growth of DLD-1 cells in soft agar. DLD-1 cells are human colorectal carcinoma cells that overexpress COX-2. DLD-1 cells grow in soft agar and form tumors in nude mice. The soft agar assay was performed as follows. Bottom agar was first prepared as a 3 mL layer of 0.8% noble agar prepared in complete growth medium (DMEM containing 10% FBS and 500 units of penicillin-streptomycin) and placed into 60 mm^2 tissue culture dishes. The tumor cells were trypsinized from normal growth flasks while in exponential growth. The cells were counted by using a hemacytometer and 5.0×10^4 viable cells were mixed with 0.4% noble agar containing growth medium and various concentrations of drugs. Non-treated control plates received DMSO alone. Each drug concentration was run in duplicate. The concentration range was normally between 10 μM to 75 μM. The plates were incubated at 37° C. under 95% humidity for three weeks and stained with a 0.05% (w/v) nitroblue tetrazolium solution. This solution will only stain viable cells so that all growing cell in the form of colonies will appear blue. The plates were photographed using an Olympus stereoscope mounted with a SONY digital camera system.

The subject of another series is mice. Description: In vivo toxicity assay, survival after intraperitoneal dosing. The conditions noted are these: survival at seven days. As to the method:
The compound of Example 4 was examined for in vivo toxicity in mice. Mice received intraperitoneal doses of compound suspended in DMSO, ranging from 25 to 400 mg/kg. Survival at seven days was determined.

In a further series the test system is DU145. Description: In vitro cytotoxicity assay (trypan exclusion, viable cell count). The following applies: DU-145; DU145 human prostate carcinoma, 96 hours. It is filed as cell-based. As to the method:
(§1) The human colo-rectal carcinoma cell lines DLD-1, HT29, and HCT 116, and the human prostate carcinoma cell line DU145, were grown exponentially and plated onto 6 well dishes at a cell density of 1.0×10^5 cells per 35 mm well. Various concentration of 4-bromobenzaldehyde-4-sulfamylphenylhydrazone (Ex. 4) or DMSO were added 24 hours later. The number of viable cells were determined at each concentration tested 96 hours later by trypan exclusion using a hemacytometer. The GI50 (concentration of drug that inhibits 50% of tumor cell growth when compared to tumor cells treated with same volume of DMSO) was determined for each cell line.

A further series concerns DLD-1. The description is as above. It is filed as cell-based. The conditions noted are these: DLD-1 human colo-rectal carcinoma, 96 hours. As for the experimental part: as §1
The test system of the next series is HCT116. Described as above. In kind it is cell-based. The following applies: HCT-116; HCT116 human colo-rectal carcinoma, 96 hours. As to the method:
as §1

A short description of series [1]: Bioavailability assay, plasma drug concentration after intraperitoneal injection. In kind it is in vivo. The conditions noted are these: mice; for concentration at 120 min: mouse, plasma, ip, 120 minutes post injection. As to the method:
The bioavailability of compound of Example 4 was examined as follows. Mice received a single dose (25 or 50 mg/kg) of compound suspended in DMSO via intraperitoneal injection. Plasma drug concentration was measured 120 minutes post injection.

Another series has as its system HT29. Description: In vitro cytotoxicity assay (trypan exclusion, viable cell count). It is filed as cell-based. The following applies: HT-29; HT29 human colo-rectal carcinoma, 96 hours. As for the experimental part:
as §1
The same protocol was used to compare the growth inhibitory activity of 4-bromobenzaldehyde-4-sulfamylphenylhydrazone and celecoxib against the human colo-rectal tumor cell line HT29. The data are plotted as the percent of viable cells remaining as compared to DMSO (non-treated) cells.

Consider five molecules from patent US20030187035A1, “Substituted hydrazones as inhibitors of cyclooxygenase-2” (priority 2001, published 2003).

Some results are limits rather than exact numbers.

As a reminder, the GI50 is the concentration that inhibits growth by half.

As to `NS(=O)(=O)c1ccc(NN=Cc2ccc(F)cc2)cc1` [Example 2, 4-Fluorobenzaldehyde-4-sulfamylphenylhydrazone], the “Concentration Required for Complete DLD-1 Colony Growth Inhibition” value in the series on DLD-1 cells was determined as 30 µM.

Turning to `NS(=O)(=O)c1ccc(NN=Cc2ccc(Cl)cc2)cc1` [Example 3, 4-Chlorobenzaldehyde-4-sulfamylphenylhydrazone], the “Concentration Required for Complete DLD-1 Colony Growth Inhibition” value with DLD-1 cells was found to be 20 µM.

Take `NS(=O)(=O)c1ccc(NN=Cc2ccc(Br)cc2)cc1` [Example 4, 4-Bromobenzaldehyde-4-sulfamylphenylhydrazone]: the figures for the “Concentration Required for Complete DLD-1 Colony Growth Inhibition” value with DLD-1 cells and with DLD-1 cells (listed as Ex. 4) were <20 µM and 20 µM, respectively. Moreover, the “Percent Survival of Mice” value in the series with mice (25 mg/kg intraperitoneal) amounted to 100%; in the series with mice (50 mg/kg intraperitoneal) it was 100%; in the series on mice (100 mg/kg intraperitoneal) it was 100%; in the series on mice (200 mg/kg intraperitoneal), 100%; in the series with mice (400 mg/kg intraperitoneal), 80%. Further, the “In vivo toxicity in mice (in words)” value in the series with mice (intraperitoneal doses 25 to 400 mg/kg) is given as “very low mammalian toxicity”. Also, the GI50 was determined as 30 µM in the series with DU145, 30 µM in the series on DLD-1, 30 µM in the series with HCT116 and 8 µM in the series with HT29. Moreover, the “Bioavailability (in words)” value in series [1] (single dose 25 or 50 mg/kg intraperitoneal) is listed as “high level of bioavailability”. For the same molecule, the concentration at 120 min in series [1] (single dose 25 mg/kg intraperitoneal) amounted to 38 µg/mL; in series [1] (single dose 50 mg/kg intraperitoneal), 165 µg/mL.

With `COc1ccc(C=NNc2ccc(S(N)(=O)=O)cc2)cc1` [Example 9, 4-Methoxybenzaldehyde-4-sulfamylphenylhydrazone], the “Concentration Required for Complete DLD-1 Colony Growth Inhibition” value in the series with DLD-1 cells is >75 µM.

For the molecule `Cc1ccc(-c2cc(C(F)(F)F)nn2-c2ccc(S(N)(=O)=O)cc2)cc1` [celecoxib, reference compound], growth with HT29 was halved (GI50) at 25 µM.
